Data from patent US20100041710A1, “PENETRATION ENHANCER FOR INSECTICIDES” (priority 2006, published 2010).
Where two headings read alike, the source gives them in different places.

How the values were obtained:
[1] = Description: In this test, the penetration of active substances through enzymatically isolated cuticles of apple tree leaves was measured. The cuticles represent all green plant parts, such as leaf blade, petiole, stalk, trunk, hypocotyl and many fruits.
Leaves which were cut off in the stage of full development of apple trees of the Golden Delicious variety were used. The isolation of the cuticles was effected in a manner such that • first, leaf disks marked on the underside with dye and punched out were filled by means of vacuum infiltration with a pectinase solution (0.2 to 2% strength by weight) buffered to a pH between 3 and 4, • sodium azide was then added and • the leaf disks thus treated were allowed to stand until disintegration of the original leaf structure and detachment of the noncellular cuticle.
Thereafter, only those cuticles of the upper sides of the leaves which were free of stomata and hairs were further used. They were washed several times alternately with water and a buffer solution at pH 7. The cleaned cuticles obtained were finally drawn onto small Teflon plates and smoothed and dried with a gentle air jet.
In the next step, the cuticle membranes thus obtained were placed in stainless steel diffusion cells (=transport chambers) for membrane transport investigations. For this purpose, the cuticles were placed by means of forceps centrally on the silicone grease-coated edges of the diffusion cells and closed with a likewise greased ring. The arrangement was chosen so that the morphological outside of the cuticles faced outward, i.e. toward the air, while the original inside faced the interior of the diffusion cell. The diffusion cells were filled with water or with a mixture of water and solvent.
For determining the penetration, in each case 10 μl of a spray liquor of the composition mentioned in the examples were applied to the outside of a cuticle.
In each case the solvents listed below in the table (tap water or a mixture with 20% by weight of acetone/80% by weight of tap water) were used in the spray liquors.
After the application of the spray liquors, in each case the solvent was allowed to evaporate, and in each case the chambers were then turned around and placed in thermostated trays, air having a defined temperature and atmospheric humidity being blown onto the outside of the cuticle. The incipient penetration therefore took place at a relative humidity of 60% and a set temperature of 20 or 25° C. The active substance penetration was measured with radioactively marked active substance.

crop plant = assay: Crop plant tolerance tests; conditions: compared with other alkyl ester additives
[2] = Table 3, 0.1 g/l of imidacloprid in tap water, apple leaf cuticles, 20-25° C., rel. humidity 56-60%, mean of 10 repetitions
[3] = Table 2, 0.3 g/l of active substance, tap water (thiacloprid) or acetone/tap water 20/80% by weight (spirotetramat), 20-25° C., rel. humidity 56-60%, mean of 4-8 repetitions
[4] = Table 1, 0.18 g/l of thiacloprid in tap water, apple leaf cuticles, 20° C., rel. humidity 60%, mean of 4-8 repetitions

O=[N+]([O-])NC1=NCCN1Cc1ccc(Cl)nc1 [imidacloprid]
% Penetration after 3 h [1, 2]: 0.3% | % Penetration after 24 h [1, 2]: 0.5%

CCCCOCCOP(=O)(OCCOCCCC)OCCOCCCC [TBEP, tributoxyethyl phosphate]
Increase in uptake of active substances compared with prior-art penetration enhancers ([1]; summary of table 3 (imidacloprid), versus TBP and TPP): advantageously higher increase in uptake of active substances than the penetration enhancers of the prior art | Crop plant tolerance (crop plant): more tolerant than other alkyl ester additives

CCOC(=O)OC1=C(c2cc(C)ccc2C)C(=O)N[C@]12CC[C@@H](OC)CC2 [spirotetramat, cis-3-(2,5-dimethylphenyl)-8-methoxy-2-oxo-1-azaspiro[4.5]dec-3-en-4-yl ethyl carbonate]
% Penetration after 3 h [1, 3]: 0% | % Penetration after 48 h [1, 3]: 0.3%

N#C/N=C1\SCCN1Cc1ccc(Cl)nc1 [thiacloprid]
% Penetration after 3 h [1, 4]: 0.1% | % Penetration after 24 h [1, 4]: 0.8% | % Penetration after 3 h [1, 3]: 0.1% | % Penetration after 48 h [1, 3]: 1.0%
